According to patent publication US6268395A, “Phorbol derivatives having antivirus activity” (Lead Chemical Co., Ltd., priority 1999, dated 2001):
Like-named read-outs stand apart in the source and are kept apart here.

Legend:
[1] = Cell growth / viability of MT-4 cells (cytotoxicity); type: cell-based; settings: human, day 5, read-out: CC0 (concentration that reduces viability of MT-4 cells; minimum cytotoxic concentration)
Description: (§1) In the experiments, MT-4 cells were used. The cells were incubated at 37° C. under 5% CO2 in RPMI-1640 medium (FCS, Flow laboratories, North Ryde, Australia) supplemented with 100 μg/mL of streptomycin (Meiji Seika, Tokyo, Japan), and 100 U/mL of penicillin G (Banyu Pharmaceutical, Tokyo, Japan).
(§2) The inhibitory effect of test compounds on HIV-1-induced cytopathogenicity was measured by the method of Harada, Koyanagi & Yamamoto (1985). MT-4 cells were infected for 1 hour with HIV-1 (at TCID50 of 0.001/well) and non-adsorbed virus was removed by washing. Then, the cells were resuspended in RPMI-1640 medium at a concentration of 1.5×10^5 cells/mL. A 200 μL/well of the cell suspension was cultured for 5 days in days in a 96-well culture plate containing various concentrations (12 doses, maximum 1,000 μg/mL and minimum […]) of the test compounds. Control assays were performed in the absence of test compounds with HIV-1-infected and uninfected cultures. On day 5, the IC100 of the test compound required for completely preventing HIV-1-induced CPE(IC) was determined through an optical microscope and the cell growth was examined to give the CC0 that reduces the viability of MT-4 cells.

HIV-1 = assay: Inhibition of HIV-1-induced cytopathic effect (CPE) in MT-4 cells; type: cell-based, HIV-1 (LAV-1) in human MT-4 cells; settings: for IC100: Human immunodeficiency virus 1, MT4, 120 h, read-out: Anti-HIV-1 IC100 (complete prevention of HIV-1-induced CPE); for CPE inhibitory effect (in words): HIV-1; for r = CC0/IC100: 7200 min
Description: as §1
HIV-1 was obtained from culture supernatant of MOLT-4 cells that had been persistently infected with LAV-1.
j) Assay of cytopathic effect(CPE) of HIV-1 in MT-4 cells
as §2
A variety of phorbol esters and related compounds were tested for their ability to inhibit the replication and infectivity of HIV-1 in MT-4 cells, a human CD4-positive cell line continually infected with HTLV-1, and the results are presented in Table 3.

protein kinase C (PKC) = type: biochemical, mouse; settings: for % Activity of PKC: relative to TPA positive control; for activation of PKC (in words): concentration not given
Description: After addition of 0.55 nM [γ-^32 P] ATP (50×10^3 cpm/nmol), the reaction mixture was mixed and allowed to be kept at 37° C. for 30 minutes. Then the reactions were terminated by the addition of 10 μl of ice-cold stop reagent. Aliquots of 35 μL were transferred to the center of peptide binding discs. After 10 minutes, the discs were washed two times with 75 mM orthophosphoric acid. The activity of ^32 P-labeled samples was counted in 10/mL of a scintillation fluid for 1 minute. […] Blank (in the absence of PKC) and control (in the absence of TPA or tested samples) were also carried out. One unit of PKC was defined as that amount of enzyme, which incorporated 1 nmol of phosphate from ATP into its substrate, peptide, per minute under the assay conditions, described above.

[2] = MT-4 cells, 5 days, NE: Not effective

SMILES	MCC at 120 h [1]	IC100 (HIV-1; [2])	Anti-HIV-1 IC100 (complete prevention of HIV-1-induced CPE) (HIV-1; [2])	CPE inhibitory effect (in words) (HIV-1; MT-4 cells)	r = CC0/IC100 (HIV-1; MT-4 cells)	% Activity of PKC (protein kinase C (PKC); 10 ng/mL)	% Activity of PKC (protein kinase C (PKC); 2.7 μg/mL)	activation of PKC (in words) (protein kinase C (PKC))	IC100 (HIV-1)	PKC activation (in words) (protein kinase C (PKC); 10 ng to 2.7 μg/mL)	PKC activation (in words) (protein kinase C (PKC); 10 ng/mL (standard concentration))	enhancement of CPE inhibitory activity (HIV-1; relative to compound 1)
CCCCC/C=C\C/C=C\CCCCCCCC(=O)OCC1=C[C@H]2[C@@H]3C(C)(C)[C@]3(OC(C)=O)[C@H](OC(C)=O)[C@@H](C)[C@]2(O)[C@@H]2C=C(C)C(=O)[C@@]2(O)C1 [Compound 13, Phorbol-12,13-diacetate-20-linoleate]	62.5 µg/mL	7.81 µg/mL	7.8 µg/mL	Enhancement of the anti-HIV activity	8.00	0%	44%	without an increase in the activity of PKC				
CCCCCCCCCCCCCC(=O)O[C@@H]1[C@@H](C)[C@@]2(O)[C@@H](C=C(COC(C)=O)C[C@]3(O)C(=O)C(C)=C[C@@H]23)[C@@H]2C(C)(C)[C@]12OC(C)=O [Compound 14, 12-O-Tetradecanoylphorbol-13,20-diacetate]	62.5 µg/mL	15.6 µg/mL		dramatically decreased	4.01	0%	30%	dramatically decreased				
CC(=O)OCC1=C[C@H]2[C@@H]3C(C)(C)[C@]3(OC(C)=O)[C@H](OC(C)=O)[C@@H](C)[C@]2(O)[C@@H]2C=C(C)[C@H](O)[C@@]2(O)C1 [Compound 15, 3-Deoxo-3β-hydroxyphorbol-12,13,20-triacetate]	1000 µg/mL			loss of CPE inhibitory effect	2.00	0%	26%		500 µg/mL			
CO[C@]12CC(COC(C)=O)=C[C@H]3[C@@H]4C(C)(C)[C@]4(OC(C)=O)[C@H](OC(C)=O)[C@@H](C)[C@]3(O)[C@@H]1C=C(C)C2=O [Compound 16, 4-O-Methylphorbol-12,13,20-triacetate]	125 µg/mL	31.3 µg/mL		increased in the CPE inhibitory effect	3.99	0%	0%	no activation of PKC		no activation		
CC(=O)OCC1=C[C@H]2[C@@H]3C(C)(C)[C@]3(OC(C)=O)[C@H](OC(C)=O)[C@@H](C)[C@]2(OC(C)=O)[C@@H]2C=C(C)C(=O)[C@@]2(OC(C)=O)C1 [Compound 17, Phorbol-4,9,12,13,20-pentaacetate]	250 µg/mL	125 µg/mL			2.00	0%					did not activate PKC	
C=C(C)C1C(OC(C)=O)=CC(C)C2(O)C1C=C(COC(=O)CCCCCCC/C=C\C/C=C\CCCCC)CC1(O)C(=O)C(C)=CC12 (centres unmarked) [Compound 18, 13-O-Acetylcrotophorbolone-enol-20-linoleate]	125 µg/mL	7.81 µg/mL	7.8 µg/mL		16.0	24%	24%					2 times
